Reference: US20100041089A1, “IMPROVED METHOD FOR DETECTING CHEMICAL […]” (priority 2006, published 2010)

Test system: yeast genes (expressed mRNA)
Assay: DNA chip measurement of expressed mRNA of yeast genes after culture with a toxic chemical substance
Format: cell-based, Saccharomyces cerevisiae S288C
Outline: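 Expression is given as treated/untreated fluorescence ratio on a whole-genome yeast DNA chip, a ratio of two or more being significant. Log-phase S288C cultures in YPD at 25 °C received the chemical for 2 h at a dose that slows growth without killing. mRNA was reverse-transcribed with Cy3- or Cy5-dUTP.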

C=CC=O [(14), Acrolein]
The level of expressed mRNA in the presence of chemical substance/The level of expressed mRNA in the absence of chemical substance (yeast gene YKL071W, cultured two hours with substance): 21.9
The level of expressed mRNA in the presence of chemical substance/The level of expressed mRNA in the absence of chemical substance (yeast gene YKL086W, cultured two hours with substance): 2.9
The level of expressed mRNA in the presence of chemical substance/The level of expressed mRNA in the absence of chemical substance (yeast gene YKL151C, cultured two hours with substance): 1.3
The level of expressed mRNA in the presence of chemical substance/The level of expressed mRNA in the absence of chemical substance (yeast gene YKL153W, cultured two hours with substance): 1.1
The level of expressed mRNA in the presence of chemical substance/The level of expressed mRNA in the absence of chemical substance (yeast gene YKL195W, cultured two hours with substance): 1.6
The level of expressed mRNA in the presence of chemical substance/The level of expressed mRNA in the absence of chemical substance (yeast gene YKL198C): 6.6
The level of expressed mRNA in the presence of chemical substance/The level of expressed mRNA in the absence of chemical substance (yeast gene YKR049C, cultured two hours with substance): 2.1
The level of expressed mRNA in the presence of chemical substance/The level of expressed mRNA in the absence of chemical substance (yeast gene YKR076W): 14.7
The level of expressed mRNA in the presence of chemical substance/The level of expressed mRNA in the absence of chemical substance (yeast gene YKR091W, cultured two hours with substance): 1.9
The level of expressed mRNA in the presence of chemical substance/The level of expressed mRNA in the absence of chemical substance (yeast gene YKR097W, cultured for two hours with substance): 2.1
The level of expressed mRNA in the presence of chemical substance/The level of expressed mRNA in the absence of chemical substance (yeast gene YLL056C, cultured two hours with substance): 11.0
The level of expressed mRNA in the presence of chemical substance/The level of expressed mRNA in the absence of chemical substance (yeast gene YLL060C (detoxification protein gene)): 10.6
The level of expressed mRNA in the presence of chemical substance/The level of expressed mRNA in the absence of chemical substance (yeast gene YLL060C (stress protein genes)): 10.6
The level of expressed mRNA in the presence of chemical substance/The level of expressed mRNA in the absence of chemical substance (yeast gene YLR031W, cultured two hours with substance): 1.5
The level of expressed mRNA in the presence of chemical substance/The level of expressed mRNA in the absence of chemical substance (yeast gene YLR054C, cultured two hours with substance): 1.1
The level of expressed mRNA in the presence of chemical substance/The level of expressed mRNA in the absence of chemical substance (yeast gene YLR149C, cultured two hours with substance): 1.2
The level of expressed mRNA in the presence of chemical substance/The level of expressed mRNA in the absence of chemical substance (yeast gene YLR152C, cultured two hours with substance): 1.2
The level of expressed mRNA in the presence of chemical substance/The level of expressed mRNA in the absence of chemical substance (yeast gene YLR194C, cultured two hours with substance): 1.2
The level of expressed mRNA in the presence of chemical substance/The level of expressed mRNA in the absence of chemical substance (yeast gene YLR205C, cultured two hours with substance): 2.4
The level of expressed mRNA in the presence of chemical substance/The level of expressed mRNA in the absence of chemical substance (yeast gene YLR280C, cultured two hours with substance): 0.5
The level of expressed mRNA in the presence of chemical substance/The level of expressed mRNA in the absence of chemical substance (yeast gene YLR324W, cultured two hours with substance): 1.4
The level of expressed mRNA in the presence of chemical substance/The level of expressed mRNA in the absence of chemical substance (yeast gene YLR350W, cultured two hours with substance): 2.8
The level of expressed mRNA in the presence of chemical substance/The level of expressed mRNA in the absence of chemical substance (yeast gene YLR387C, cultured two hours with substance): 1.7
The level of expressed mRNA in the presence of chemical substance/The level of expressed mRNA in the absence of chemical substance (yeast gene YLR408C, cultured two hours with the substance): 2.1
The level of expressed mRNA in the presence of chemical substance/The level of expressed mRNA in the absence of chemical substance (yeast gene YLR460C, cultured two hours with substance): 3.5
The level of expressed mRNA in the presence of chemical substance/The level of expressed mRNA in the absence of chemical substance (yeast gene YML054C, cultured for two hours with substance): 2.1
The level of expressed mRNA in the presence of chemical substance/The level of expressed mRNA in the absence of chemical substance (yeast gene YML087C, cultured for two hours with substance): 2.1
The level of expressed mRNA in the presence of chemical substance/The level of expressed mRNA in the absence of chemical substance (yeast gene YML117W, cultured two hours with substance): 0.8
The level of expressed mRNA in the presence of chemical substance/The level of expressed mRNA in the absence of chemical substance (yeast gene YMR009W, cultured two hours with substance): 1.9
The level of expressed mRNA in the presence of chemical substance/The level of expressed mRNA in the absence of chemical substance (yeast gene YMR067C, cultured two hours with substance): 1.5
The level of expressed mRNA in the presence of chemical substance/The level of expressed mRNA in the absence of chemical substance (yeast gene YMR090W, cultured two hours with substance): 6.5
The level of expressed mRNA in the presence of chemical substance/The level of expressed mRNA in the absence of chemical substance (yeast gene YMR095C, cultured two hours with substance): 2.2
The level of expressed mRNA in the presence of chemical substance/The level of expressed mRNA in the absence of chemical substance (yeast gene YMR096W, DNA repair protein genes, cultured two hours with substance): 4.7
The level of expressed mRNA in the presence of chemical substance/The level of expressed mRNA in the absence of chemical substance (yeast gene YMR097C, cultured two hours with substance): 2.1
The level of expressed mRNA in the presence of chemical substance/The level of expressed mRNA in the absence of chemical substance (yeast gene YMR102C, cultured two hours with substance): 0.7
The level of expressed mRNA in the presence of chemical substance/The level of expressed mRNA in the absence of chemical substance (yeast gene YMR107W, cultured two hours with substance): 8.1
The level of expressed mRNA in the presence of chemical substance/The level of expressed mRNA in the absence of chemical substance (yeast gene YMR140W, cultured two hours with substance): 1.2
The level of expressed mRNA in the presence of chemical substance/The level of expressed mRNA in the absence of chemical substance (yeast gene YMR180C, cultured two hours with substance): 1.7
The level of expressed mRNA in the presence of chemical substance/The level of expressed mRNA in the absence of chemical substance (yeast gene YMR184W, cultured two hours with substance): 1.5
The level of expressed mRNA in the presence of chemical substance/The level of expressed mRNA in the absence of chemical substance (yeast gene YMR191W, cultured two hours with substance): 1.5
The level of expressed mRNA in the presence of chemical substance/The level of expressed mRNA in the absence of chemical substance (yeast gene YMR195W, cultured two hours with substance): 1.3
The level of expressed mRNA in the presence of chemical substance/The level of expressed mRNA in the absence of chemical substance (yeast gene YMR295C, cultured two hours with substance): 1.3
